Source: PubChem BioAssay (NCI)
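1) Cells in 96-well plates. 2) Compound, 48 h, 5 concentrations. 3) Linear interpolation between surrounding doses. 4) Unreached endpoint = highest concentration. At the GI50, growth is halved. TGI: concentration producing complete growth inhibition.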

These compounds were tested on OVCAR-4 ovarian (assay: inhibition of tumour cell growth, NCI panel, 48 h).

Row | SMILES | GI50 [µM] | TGI [µM]
1 | CC(=O)[O][Hg][c]1c(C)c(C)c(C)c(C)c1C | 2.04 | 4.47
2 | C[C@]12CC[C@@H]3c4ccc(Oc5nc(N6CC6)nc(N6CC6)n5)cc4CC[C@H]3[C@@H]1CCC2=O | 3.38 | 15.2
3 | COc1cc(C(=O)O[C@H](C(N)=O)[C@]2(C)CO2)c2ccccc2c1 | 10.1 | 48.6
4 | Cc1cccc(C(C)(C)C)c1NC(=O)CCc1n[nH]c(=S)o1 |  | > 100
5 | Cc1ccc(C(=O)/C=C/c2ccccc2O)c(C)c1 |  | > 100
6 | O=S(O)CCCCSSCCCCSSCCCCS(=O)O |  | 33.9
7 | COc1cc2c(/C=C3/C(=O)Nc4cccc(Cl)c43)c(Cl)n(Cc3ccccc3)c2cc1C | 7.73 | > 100
8 | CC(=O)SCCC1c2[nH]c3ccccc3c2CCN1O (stereo unspecified) |  | > 100
9 | CCOC(=O)NC(=O)c1cn(CCCOC(=O)NCCCCCCNC(=O)OCCCn2c(=O)c(C(=O)NC(=O)OCC)cn(C)c2=O)c(=O)n(C)c1=O |  | > 100
10 | O=C1C2=C(CC3C(C2)C3(Br)Br)C(=O)C2=C1CC1C(C2)C1(Br)Br (stereo unspecified) |  | > 100
11 | CC(C)=CC(=O)N1CCN(C(=O)C=C(C)C)CC1 |  | > 100
12 | CCCCC/C=C/C/C=C/CCCCCCCC1=NC(C)(C)CN1C(C)C | 1.55 | 3
13 | CCc1cccc(C)c1NC(C)=O |  | > 100
14 | O=C(CC(=O)N1N=C(c2ccccc2)C(N=Nc2ccc(Cl)cc2)C1=O)Nc1ccccc1Cl (stereo unspecified) |  | 37.2

The compounds below were run on SW-620 colon (assay: inhibition of tumour cell growth, NCI panel, 48 h).

Row | SMILES | GI50 [µM] | TGI [µM]
15 | CC(C)(C)OC(=O)N(CCCN(CCn1c2c(c3ccccc3c1=O)C(=O)c1ccccc1-2)C(=O)OC(C)(C)C)CCn1c2c(c3ccccc3c1=O)C(=O)c1ccccc1-2 | 40.7 | > 50
16 | CCN(CC)C(=O)C/C(C)=N/NC(=O)c1ccncc1 |  | > 100
17 | Cc1c2c(nn1-c1ccc(S(=O)(=O)/N=C3\SCC(=O)N3C(=O)c3ccccc3)cc1)-c1ccccc1CC2 | > 100 | > 100
18 | Cc1ccc(N=NC(C(=O)c2ccccc2)C(=O)c2ccccc2)cc1 |  | > 100
19 | Cc1ccc(NC(=O)C2C(=O)N(c3ccc(C)c(C)c3)C(=O)/C2=N/O)cc1C (stereo unspecified) |  | 37.2
20 | Nc1c(-c2ccc(Br)cc2)[n+]([O-])c2ccccc2[n+]1[O-] |  | > 100
21 | CCCCNC(=O)NS(=O)(=O)c1ccc(N2N=C(c3ccc(C)cc3C)CC2c2ccc(N(C)C)cc2)cc1 (stereo unspecified) | 4.14 | > 100
22 | C#CC[C@]12CC(=O)CC[C@H]1CC(=O)C2 |  | > 100
23 | CNC=O.[O]=[Ge].[O]=[Ge].[O]=[Ge].[O]=[Ge][OH].[O]=[Ge][OH] |  | > 100
24 | CCOC(=O)c1c(C)n(Cc2ccc(OC)cc2)c2c1cc(O)c1[nH]c3c(c12)CCCC3 | 3.72 | 13.9
25 | N#CCCN(c1ccc(/C=C2\N=C(c3ccc(Cl)cc3)OC2=O)cc1)S(=O)(=O)c1ccccc1 |  | > 100
26 | Cc1cc(NS(=O)(=O)c2ccc(NC(=O)c3cccc4c(=O)c5ccccc5[nH]c34)cc2)no1 |  | > 100
27 | O=C(/C=C/c1ccccc1Cl)c1ccccc1Cl |  | 26.2
28 | CC(C)=[CH][Sb]([Br])([CH]=C(C)C)([CH]=C(C)C)[CH]=C(C)C | 26.4 | > 100
29 | COc1cc([N+](=O)[O-])ccc1NC(=O)C(F)(F)F |  | > 100
30 | N#CCCN(CCC#N)c1ccc(/C=C2\N=C(CN3C(=O)c4ccccc4C3=O)OC2=O)cc1 |  | > 100

Row | SMILES | GI50 [µM] | TGI [µM]
31 | N#C/C(C(=S)Nc1ccccc1)=C1/NN=C2c3ccccc3C(=O)NN21 | 28.7 | > 100
32 | CSc1nc(NC2OC(COC(C)=O)C(OC(C)=O)C(OC(C)=O)C2OC(C)=O)c2c(OC(C)=O)c(C)c(=O)oc2n1 (stereo unspecified) |  | > 100
33 | CC#CC(=O)Nc1ccccc1CC(c1c[nH]c2ccccc12)c1c[nH]c2ccccc12 |  | 36.2
34 | C[C@]12CC[C@@H]3c4ccc(Oc5nc(N6CC6)nc(N6CC6)n5)cc4CC[C@H]3[C@@H]1CCC2=O | 2.26 | 18.5
35 | COc1cc(C(=O)O[C@H](C(N)=O)[C@]2(C)CO2)c2ccccc2c1 | 18.8 | > 100
36 | Cc1cccc(C(C)(C)C)c1NC(=O)CCc1n[nH]c(=S)o1 |  | 34.1
37 | Cc1ccc(C(=O)/C=C/c2ccccc2O)c(C)c1 |  | > 100
38 | O=S(O)CCCCSSCCCCSSCCCCS(=O)O |  | > 100
39 | COc1cc2c(/C=C3/C(=O)Nc4cccc(Cl)c43)c(Cl)n(Cc3ccccc3)c2cc1C | 6.11 | > 100
40 | CC(=O)SCCC1c2[nH]c3ccccc3c2CCN1O (stereo unspecified) |  | > 100
41 | CCOC(=O)NC(=O)c1cn(CCCOC(=O)NCCCCCCNC(=O)OCCCn2c(=O)c(C(=O)NC(=O)OCC)cn(C)c2=O)c(=O)n(C)c1=O |  | > 100
42 | COc1ccc2cc(C(=O)/C=C/c3cccc(OC)c3OC)ccc2c1 | 9.53 | 29.1
43 | CC(C)=CC(=O)N1CCN(C(=O)C=C(C)C)CC1 |  | > 100
44 | CCCCC/C=C/C/C=C/CCCCCCCC1=NC(C)(C)CN1C(C)C | 1.6 | 2.99
45 | CCc1cccc(C)c1NC(C)=O |  | > 100
46 | O=C(CC(=O)N1N=C(c2ccccc2)C(N=Nc2ccc(Cl)cc2)C1=O)Nc1ccccc1Cl (stereo unspecified) |  | > 100

The compounds below were run on SR leukemia (assay: inhibition of tumour cell growth, NCI panel, 48 h).

Row | SMILES | GI50 [µM] | TGI [µM]
47 | CC(C)(C)OC(=O)N(CCCN(CCn1c2c(c3ccccc3c1=O)C(=O)c1ccccc1-2)C(=O)OC(C)(C)C)CCn1c2c(c3ccccc3c1=O)C(=O)c1ccccc1-2 | 2.07 | 8.87
48 | Cc1c2c(nn1-c1ccc(S(=O)(=O)/N=C3\SCC(=O)N3C(=O)c3ccccc3)cc1)-c1ccccc1CC2 | 69.9 | > 100
49 | C#CC[C@]12CC(=O)CC[C@H]1CC(=O)C2 |  | > 100
50 | CNC=O.[O]=[Ge].[O]=[Ge].[O]=[Ge].[O]=[Ge][OH].[O]=[Ge][OH] |  | > 100
51 | N#CCCN(c1ccc(/C=C2\N=C(c3ccc(Cl)cc3)OC2=O)cc1)S(=O)(=O)c1ccccc1 |  | > 100
52 | Cc1cc(NS(=O)(=O)c2ccc(NC(=O)c3cccc4c(=O)c5ccccc5[nH]c34)cc2)no1 |  | 80.8
53 | CC(C)=[CH][Sb]([Br])([CH]=C(C)C)([CH]=C(C)C)[CH]=C(C)C | 10.9 | > 100
54 | COc1cc([N+](=O)[O-])ccc1NC(=O)C(F)(F)F |  | > 100
55 | N#CCCN(CCC#N)c1ccc(/C=C2\N=C(CN3C(=O)c4ccccc4C3=O)OC2=O)cc1 |  | > 100
56 | N#C/C(C(=S)Nc1ccccc1)=C1/NN=C2c3ccccc3C(=O)NN21 | 19.5 | > 100
57 | COC(=O)C(=O)C(C(=O)C=C(C)C)C(=O)C(=O)Nc1ccc(Cl)cc1C (stereo unspecified) |  | 45.2
58 | CC(=O)[O][Hg][c]1c(C)c(C)c(C)c(C)c1C | 0.127 | 
59 | C[C@]12CC[C@@H]3c4ccc(Oc5nc(N6CC6)nc(N6CC6)n5)cc4CC[C@H]3[C@@H]1CCC2=O | 0.351 | 11.4
60 | COc1ccc2cc(C(=O)/C=C/c3cccc(OC)c3OC)ccc2c1 | 2.88 | > 100
61 | O=C1C2=C(CC3C(C2)C3(Br)Br)C(=O)C2=C1CC1C(C2)C1(Br)Br (stereo unspecified) |  | > 100
62 | CC(C)=CC(=O)N1CCN(C(=O)C=C(C)C)CC1 |  | > 100
63 | O=C(CC(=O)N1N=C(c2ccccc2)C(N=Nc2ccc(Cl)cc2)C1=O)Nc1ccccc1Cl (stereo unspecified) |  | > 100

Each compound was assayed on NCI-H23 lung (assay: inhibition of tumour cell growth, NCI panel, 48 h).

Row | SMILES | GI50 [µM] | TGI [µM]
64 | CC(C)(C)OC(=O)N(CCCN(CCn1c2c(c3ccccc3c1=O)C(=O)c1ccccc1-2)C(=O)OC(C)(C)C)CCn1c2c(c3ccccc3c1=O)C(=O)c1ccccc1-2 | > 50 | > 50
65 | CCN(CC)C(=O)C/C(C)=N/NC(=O)c1ccncc1 |  | > 100
66 | Cc1c2c(nn1-c1ccc(S(=O)(=O)/N=C3\SCC(=O)N3C(=O)c3ccccc3)cc1)-c1ccccc1CC2 | 27.7 | 73.2
67 | Cc1ccc(N=NC(C(=O)c2ccccc2)C(=O)c2ccccc2)cc1 |  | 63.2
68 | Cc1ccc(NC(=O)C2C(=O)N(c3ccc(C)c(C)c3)C(=O)/C2=N/O)cc1C (stereo unspecified) |  | > 100
69 | Nc1c(-c2ccc(Br)cc2)[n+]([O-])c2ccccc2[n+]1[O-] |  | > 100
70 | CCCCNC(=O)NS(=O)(=O)c1ccc(N2N=C(c3ccc(C)cc3C)CC2c2ccc(N(C)C)cc2)cc1 (stereo unspecified) | 4.92 | > 100
71 | CNC=O.[O]=[Ge].[O]=[Ge].[O]=[Ge].[O]=[Ge][OH].[O]=[Ge][OH] |  | > 100
72 | CCOC(=O)c1c(C)n(Cc2ccc(OC)cc2)c2c1cc(O)c1[nH]c3c(c12)CCCC3 | 1.9 | 13.3
73 | N#CCCN(c1ccc(/C=C2\N=C(c3ccc(Cl)cc3)OC2=O)cc1)S(=O)(=O)c1ccccc1 |  | > 100
74 | Cc1cc(NS(=O)(=O)c2ccc(NC(=O)c3cccc4c(=O)c5ccccc5[nH]c34)cc2)no1 |  | > 100
75 | O=C(/C=C/c1ccccc1Cl)c1ccccc1Cl |  | 52.9
76 | CC(C)=[CH][Sb]([Br])([CH]=C(C)C)([CH]=C(C)C)[CH]=C(C)C | 6.12 | 46.7
77 | COc1cc([N+](=O)[O-])ccc1NC(=O)C(F)(F)F |  | > 100
78 | CSc1nc(NC2OC(COC(C)=O)C(OC(C)=O)C(OC(C)=O)C2OC(C)=O)c2c(OC(C)=O)c(C)c(=O)oc2n1 (stereo unspecified) |  | > 100
79 | CC#CC(=O)Nc1ccccc1CC(c1c[nH]c2ccccc12)c1c[nH]c2ccccc12 |  | 38.8
